Experimental data: article PMC12408707, “Daunorubicin and its hydroxy metabolite in cardiomyocytes: insights into cellular kinetics, toxicity, DNA damage, and dexrazoxane-induced cardioprotection” (Archives of Toxicology, 2025)

Target: T1, topoisomerase IIβ (TOP2B) (Homo sapiens, UniProt Q02880)
T1 construct: recombinant human TOP2B enzyme (Inspiralis)
Test: kDNA decatenation assay with recombinant human TOP2B, agarose gel
Format: biochemical

T1 sequence (Q02880 2-1626): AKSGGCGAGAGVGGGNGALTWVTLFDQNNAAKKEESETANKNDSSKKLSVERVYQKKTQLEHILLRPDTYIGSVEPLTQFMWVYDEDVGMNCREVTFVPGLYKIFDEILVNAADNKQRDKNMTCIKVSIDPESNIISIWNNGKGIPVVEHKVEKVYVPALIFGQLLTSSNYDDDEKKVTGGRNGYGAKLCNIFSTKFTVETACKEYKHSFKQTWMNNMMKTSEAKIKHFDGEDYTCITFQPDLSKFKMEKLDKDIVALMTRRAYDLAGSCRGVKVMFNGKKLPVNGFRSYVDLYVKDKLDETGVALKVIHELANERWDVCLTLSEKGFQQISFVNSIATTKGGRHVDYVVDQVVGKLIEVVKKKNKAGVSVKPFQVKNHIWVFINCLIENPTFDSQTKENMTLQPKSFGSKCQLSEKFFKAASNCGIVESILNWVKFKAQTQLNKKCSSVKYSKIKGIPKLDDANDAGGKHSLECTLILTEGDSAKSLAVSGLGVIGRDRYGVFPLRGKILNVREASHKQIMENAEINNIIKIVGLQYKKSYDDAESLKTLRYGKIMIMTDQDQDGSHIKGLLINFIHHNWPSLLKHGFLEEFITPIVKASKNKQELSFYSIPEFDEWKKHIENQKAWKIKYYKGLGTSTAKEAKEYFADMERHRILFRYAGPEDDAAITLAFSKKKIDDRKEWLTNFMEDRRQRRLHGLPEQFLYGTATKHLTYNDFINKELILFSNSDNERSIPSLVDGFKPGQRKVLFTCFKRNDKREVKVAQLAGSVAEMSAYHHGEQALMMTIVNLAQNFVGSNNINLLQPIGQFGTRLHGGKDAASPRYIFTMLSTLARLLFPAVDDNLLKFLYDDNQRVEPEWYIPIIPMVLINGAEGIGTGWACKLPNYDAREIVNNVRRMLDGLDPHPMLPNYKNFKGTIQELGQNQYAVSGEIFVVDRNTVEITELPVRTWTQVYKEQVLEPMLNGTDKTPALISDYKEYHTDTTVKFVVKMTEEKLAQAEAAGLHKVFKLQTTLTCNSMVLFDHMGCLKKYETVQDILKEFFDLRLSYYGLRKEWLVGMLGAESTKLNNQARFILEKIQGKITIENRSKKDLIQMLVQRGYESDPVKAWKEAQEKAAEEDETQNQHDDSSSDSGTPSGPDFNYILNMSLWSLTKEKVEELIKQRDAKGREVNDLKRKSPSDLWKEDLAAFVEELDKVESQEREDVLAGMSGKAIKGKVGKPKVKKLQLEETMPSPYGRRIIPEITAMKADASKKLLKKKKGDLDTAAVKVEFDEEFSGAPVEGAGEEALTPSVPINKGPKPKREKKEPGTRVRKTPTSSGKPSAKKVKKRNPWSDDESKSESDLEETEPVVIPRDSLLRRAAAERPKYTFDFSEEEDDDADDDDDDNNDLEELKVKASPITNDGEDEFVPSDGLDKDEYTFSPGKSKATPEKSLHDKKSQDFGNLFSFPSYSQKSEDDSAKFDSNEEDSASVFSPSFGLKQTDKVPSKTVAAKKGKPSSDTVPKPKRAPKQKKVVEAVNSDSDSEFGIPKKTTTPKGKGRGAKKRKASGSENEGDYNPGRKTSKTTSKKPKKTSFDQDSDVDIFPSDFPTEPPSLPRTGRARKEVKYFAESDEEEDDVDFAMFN

COc1cccc2c1C(=O)c1c(O)c3c(c(O)c1C2=O)C[C@@](O)(C(C)=O)C[C@@H]3O[C@H]1C[C@H](N)[C@H](O)[C@H](C)O1 [DAU, daunorubicin]
IC50: 4 ± 1 µM

COc1cccc2c1C(=O)c1c(O)c3c(c(O)c1C2=O)C[C@@](O)(C(C)O)C[C@@H]3O[C@H]1C[C@H](N)[C@H](O)[C@H](C)O1 (some centres unmarked) [DAU-ol, daunorubicinol]
IC50: 17 ± 4 µM
